Laboratory results taken from patent US20020028836A1, “Potassium channel openers” (priority 2000, published 2002).

Key:
[1] = test system: primary cultured guinea-pig urinary bladder (GPB) cells; experiment: Membrane hyperpolarization (MHP) assay, DiBAC(4)3 / FLIPR; assay type: cell-based; conditions: Cavia porcellus; for EC50: concentration that elicits 50% of the maximal response for the test sample; for Emax: maximal steady-state hyperpolarization, normalized to response with 10 μM P1075 (100%)
Method in brief: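 Primary smooth-muscle cells from male guinea-pig bladder, grown to confluence, loaded 30 min at 37° C with 5 μM DiBAC(4)3 in HEPES buffer pH 7.4. Fluorescence drop on FLIPR followed 25 min after compound; steady-state hyperpolarization normalized to 10 μM P1075 (100%), EC50 from four-parameter fit of five concentrations.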

| EC50 [1] [nM] | melting point [°C] | SMILES | Emax [1] [%] |
| --- | --- | --- | --- |
| 1080 | 179 to 181 | Cc1ccc(C(=O)NC(NC(=S)Nc2cccc(C(F)(F)F)c2F)C(F)(F)F)cc1 (stereo not shown) [Example 5, 4-methyl-N-[2,2,2-trifluoro-1-({[2-fluoro-3-(trifluoromethyl)anilino]carbothioyl}amino)ethyl]benzamide] | 106 |
| 1550 | 193 to 194 | COc1ccc(NC(=S)NC(NC(=O)c2ccc(C)cc2)C(F)(F)F)cc1 (stereo not shown) [Example 6, 4-methyl-N-(2,2,2-trifluoro-1-{[(4-methoxyanilino)carbothioyl]amino}ethyl)benzamide] | 107 |
| 450 | 199 to 200 | Cc1ccc(C(=O)NC(NC(=S)Nc2ccc(Cl)nc2)C(F)(F)F)cc1 (stereo not shown) [Example 7, N-[1-({[(6-chloro-3-pyridinyl)amino]carbothioyl}amino)-2,2,2-trifluoroethyl]-4-methylbenzamide] | 101 |
| ≥ 10000 | 212 to 214 | COc1ccccc1NC(=S)NC(NC(=O)c1ccc(C)cc1)C(F)(F)F (stereo not shown) [Example 8, 4-methyl-N-(2,2,2-trifluoro-1-{[(2-methoxyanilino)carbothioyl]amino}ethyl)benzamide] | 10 |
| 700 | 192 to 193 | Cc1ccc(NC(=S)NC(NC(=O)c2ccc(C)cc2)C(F)(F)F)cc1 (stereo not shown) [Example 10, 4-methyl-N-{2,2,2-trifluoro-1-[(4-toluidinocarbothioyl)amino]ethyl}benzamide] | 65 |
| ≥ 10000 | 206 to 208 | COc1cccc(NC(=S)NC(NC(=O)c2ccc(C)cc2)C(F)(F)F)c1 (stereo not shown) [Example 12, 4-methyl-N-(2,2,2-trifluoro-1-{[(3-methoxyanilino)carbothioyl]amino}ethyl)benzamide] | 4 |
| 370 | 197 to 198 | Cc1ccc(C(=O)NC(NC(=S)Nc2cccc(C)c2)C(F)(F)F)cc1 (stereo not shown) [Example 16, 4-methyl-N-{2,2,2-trifluoro-1-[(3-toluidinocarbothioyl)amino]ethyl}benzamide] | 65 |
| 60 | 147 to 149 | O=C(NC(NC(=S)Nc1cccnc1)C(F)(F)F)c1ccc(Cl)cc1 (stereo not shown) [Example 19, 4-chloro-N-(2,2,2-trifluoro-1-{[(3-pyridinylamino)carbothioyl]amino}ethyl)benzamide] | 117 |
| 990 | 186 to 187 | Cc1ccccc1C(=O)NC(NC(=S)Nc1cccnc1)C(C)(C)C (stereo not shown) [Example 26, N-(2,2-dimethyl-1-{[(3-pyridinylamino)carbothioyl]amino}propyl)-2-methylbenzamide] | 80 |
| 1000 | 172 to 175 | Cc1ccc(C(=O)NC(C)NC(=S)Nc2cccc([N+](=O)[O-])c2)cc1 (stereo not shown) [Example 29, 4-methyl-N-(1-{[(3-nitroanilino)carbothioyl]amino}ethyl)benzamide] | 28 |
| 3200 | 170 to 171 | Cc1ccc(C(=O)NC(Cc2ccccc2)NC(=S)Nc2cccc([N+](=O)[O-])c2)cc1 (stereo not shown) [Example 30, 4-methyl-N-(1-{[(3-nitroanilino)carbothioyl]amino}-2-phenylethyl)benzamide] | 22 |
| 1000 | 148 to 155 | Cc1ccc(C(=O)NC(CF)NC(=S)Nc2cccc([N+](=O)[O-])c2)cc1 (stereo not shown) [Example 32, N-(2-fluoro-1-{[(3-nitroanilino)carbothioyl]amino}ethyl)-4-methylbenzamide] | 15 |
| 13100 | 184 to 186 | Cc1ccc(C(=O)NC(NC(=S)Nc2cccnc2)C(C)C)cc1 (stereo not shown) [Example 35, 4-methyl-N-(2-methyl-1-{[(3-pyridinylamino)carbothioyl]amino}propyl)benzamide] | 40 |
| 25500 | 102 to 104 | CC[C@H](C)[C@H](NC(=O)c1ccc(C)cc1)NC(=S)Nc1cccnc1 [Example 36, 4-methyl-N-((1R,2S)-2-methyl-1-{[(3-pyridinylamino)carbothioyl]amino}butyl)benzamide] | 50 |
| 780 | 184 to 186 | Cc1ccc(C(=O)NC(N2CCN(c3cccc(F)c3)C2=S)C(Cl)(Cl)Cl)cc1 (stereo not shown) [Example 37, 4-methyl-N-{2,2,2-trichloro-1-[3-(3-fluorophenyl)-2-thioxo-1-imidazolidinyl]ethyl}benzamide] | 85 |
| 460 | 182 to 184 | Cc1ccccc1C(=O)NC(NC(=O)Nc1cccnc1)C(Cl)(Cl)Cl (stereo not shown) [Example 39, 2-methyl-N-(2,2,2-trichloro-1-{[(3-pyridinylamino)carbonyl]amino}ethyl)benzamide] | 101 |

| EC50 [1] [nM] | melting point [°C] | SMILES | Emax [1] [%] |
| --- | --- | --- | --- |
| 140 | 166 to 168 | O=C(Nc1cccnc1)NC(NC(=O)c1ccc(Cl)cc1)C(Cl)(Cl)Cl (stereo not shown) [Example 41, 4-chloro-N-(2,2,2-trichloro-1-{[(3-pyridinylamino)carbonyl]amino}ethyl)benzamide] | 98 |
| 2140 | 230 to 233 | Cc1ccc(C(=O)NC(NC(=O)Nc2ccccc2)C(Cl)(Cl)Cl)cc1 (stereo not shown) [Example 42, N-{1-[(anilinocarbonyl)amino]-2,2,2-trichloroethyl}-4-methylbenzamide] | 66 |
| 1210 | 257 to 259 | Cc1ccc(C(=O)NC(NC(=O)Nc2ccccc2F)C(Cl)(Cl)Cl)cc1 (stereo not shown) [Example 43, 4-methyl-N-(2,2,2-trichloro-1-{[(2-fluoroanilino)carbonyl]amino}ethyl)benzamide] | 80 |
| 200 | 186 to 188 | Cc1ccc(C(=O)NC(NC(=NC#N)Nc2cncnc2)C(Cl)(Cl)Cl)cc1 (stereo not shown) [Example 48, 4-methyl-N-(2,2,2-trichloro-1-{[(cyanoimino)(5-pyrimidinylamino)methyl]amino}ethyl)benzamide] | 96 |
| 310 | 185 to 187 | CCC(CC)C(NC(=O)c1ccc(Cl)cc1)NC(=NC#N)Nc1cccnc1 (stereo not shown) [Example 59, 4-chloro-N-(1-{[(cyanoimino)(3-pyridinylamino)methyl]amino}-2-ethylbutyl)benzamide] | 73 |
| 1000 | 193 to 194 | CC(C)CC(NC(=O)c1ccc(Cl)cc1)NC(=NC#N)Nc1cccnc1 (stereo not shown) [Example 60, 4-chloro-N-(1-{[(cyanoimino)(3-pyridinylamino)methyl]amino}-3-methylbutyl)benzamide] | 62 |
|  | 185 to 186 | CCCC(Cl)(Cl)C(NC(=O)c1ccc(Cl)cc1)NC(=C[N+](=O)[O-])Nc1cccnc1 (stereo not shown) [Example 151, 4-chloro-N-(2,2-dichloro-1-{[2-nitro-1-(3-pyridinylamino)ethenyl]amino}pentyl)benzamide] |  |
|  | 213 to 214 | CC(C)(C)C(NC(=O)c1ccc(Cl)cc1)NC(Nc1cccnc1)=C(C#N)C#N (stereo not shown) [Example 152, 4-chloro-N-(1-{[2,2-dicyano-1-(3-pyridinylamino)vinyl]amino}-2,2-dimethylpropyl)benzamide] |  |
|  | 125 to 126 | COc1ncccc1NC(=NC#N)NC(NC(=O)c1cc(F)cc(F)c1)C(C)(Cl)Cl (stereo not shown) [Example 157, N-[2,2-dichloro-1-({(cyanoimino)[(2-methoxy-3-pyridinyl)amino]methyl}amino)propyl]-3,5-difluorobenzamide] |  |
|  | 149 to 150 | COc1ncccc1NC(=NC#N)NC(NC(=O)c1cc(Cl)cc(Cl)c1)C(C)(Cl)Cl (stereo not shown) [Example 164, 3,5-dichloro-N-[2,2-dichloro-1-({(cyanoimino)[(2-methoxy-3-pyridinyl)amino]methyl}amino)propyl]benzamide] |  |
|  | 185 to 186 | COc1ccccc1NC(=NC#N)NC(NC(=O)c1ccc(Cl)cc1)C(C)(Cl)Cl (stereo not shown) [Example 181, 4-chloro-N-(2,2-dichloro-1-{[(cyanoimino)(2-methoxyanilino)methyl]amino}propyl)benzamide] |  |
|  | 189 to 190 | COc1ccc(NC(=NC#N)NC(NC(=O)c2cccc(Cl)c2)C(C)(Cl)Cl)cn1 (stereo not shown) [Example 182, 3-chloro-N-[2,2-dichloro-1-({(cyanoimino)[(6-methoxy-3-pyridinyl)amino]methyl}amino)propyl]benzamide] |  |
|  | 187 to 189 | COc1cc(OC)cc(C(=O)NC(NC(=NC#N)Nc2ccc(C(F)(F)F)nc2)C(C)(Cl)Cl)c1 (stereo not shown) [Example 183, N-{2,2-dichloro-1-[((cyanoimino){[6-(trifluoromethyl)-3-pyridinyl]amino}methyl)amino]propyl}-3,5-dimethoxybenzamide] |  |
|  | 213 to 215 | CC(Cl)(Cl)C(NC(=O)c1cc(Cl)cc(Cl)c1)NC(=NS(=O)(=O)C(F)(F)F)Nc1cccnc1 (stereo not shown) [Example 190, 3,5-dichloro-N-{2,2-dichloro-1-[((3-pyridinylamino){[(trifluoromethyl)sulfonyl]imino}methyl)amino]propyl}benzamide] |  |
|  | 214 to 215 | CC(Cl)(Cl)C(NC(=O)c1ccc(C(F)(F)F)cc1)NC(=NS(=O)(=O)C(F)(F)F)Nc1cccnc1 (stereo not shown) [Example 191, N-{2,2-dichloro-1-[((3-pyridinylamino){[(trifluoromethyl)sulfonyl]imino}methyl)amino]propyl}-4-(trifluoromethyl)benzamide] |  |
|  | 212 to 213 | CC(Cl)(Cl)C(NC(=O)c1cccnc1)NC(=NC#N)Nc1ccc(Cl)nc1 (stereo not shown) [Example 193, N-(2,2-dichloro-1-{[[(6-chloro-3-pyridinyl)amino](cyanoimino)methyl]amino}propyl)nicotinamide] |  |
